# According to PMC8063026 (Frontiers in Pharmacology, 2021):
# Where two headings read alike, the source gives them in different places.
# Experiments:
# [1] = LC-MS/MS detection of mephedrone metabolites in a human urine sample; format: in vivo; design: key to Detected in urine samples: detected (+); not detected (−); conditions: for detection in human urine sample: achiral LC-MS/MS, after enzymatic workup; for Detected in urine samples: human urine, mephedrone user, only syn- and anti-configurations could be separated
# From the text: The biological specimen, human urine, was provided by the Department of Chemical Analytics, Seibersdorf Laboratories GmbH. The sample was taken from a subject postmortem in a fatal case of drug overdose. […] Given this fact, we assumed that also the metabolites would be detectable in sufficient quantity. To evaluate the presence of any metabolites whatsoever in the urine sample we designed an achiral separation protocol for liquid chromatography and we coupled it with triple quadrupole mass spectrometer. The advantage of LC-MS/MS system is that even if two substances have the same retention time, they can still be differentiated by their fragmentation pattern. More in details, the samples for urine analysis were analyzed using a CTC HTS PAL autosampler (CTC Analytics) and a Thermo Surveyor LC system (Thermo) interfaced to a TSQ Quantum Discovery Max triple quadrupole mass spectrometer (Thermo). A C18 security guard cartridge (4 × 2 mm) (Phenomenex) was used for sample clean-up and the analytical HPLC column was a Kinetex 1.7 μm C18 100Å 150 × 2.1 mm (Phenomenex) and Cortecs T3, 2.7 μm C18 120Å 100 × 2.1 mm (Waters). Column selection was performed by a Maylab Mistraswitch column selector (Maylab Analytical Instruments). The solvents were 0.2% formic acid in water (A) and acetonitrile (B). The temperature of the analytical column was maintained at 40°C. The mass spectrometer was equipped with heated electrospray ionization (ESI) source and was operated in positive ionization mode with a spray voltage set at 4500V. The capillary temperature was adjusted to 320°C. The sheath and auxiliary gas (nitrogen) flow rate was 25 and 10 arbitrary units, respectively. The system was operated in selected […] (srm) mode with argon as the collision gas at a pressure of 1.5 mTorr. For the achiral separation, stem solutions were prepared by weighing the reference substances in volumetric flasks and filling them up with MeOH (99.9%; HPLC grade), creating average concentration of 1 mg/ml. Then dilution solutions were prepared as follows: 10 μL of stem solution was filled up to 5 ml MeOH, creating dilution […]. Samples were prepared from dilution solutions by taking out 25 μL and mixing it together with 25 μL of ISP, 50 μL ISS and filled up to 1 ml with Milli-Q water. The final sample solvent was water/MeOH 9/1. For the enzymatic workup, phosphate buffer (1 ml, 0.8M, pH = 7), β-glucuronidase/arylsulfatase (25 μL) and β-glucuronidase (25 μL) were added to the solutions. The solutions were heated at 50°C during 1 h upon which EtOAc (7 ml) was added. The solution was put into shaker for 10min, following centrifugation for 5 min. The organic phase was separated and evaporated into dryness in stream of pressurized nitrogen. The residue was taken up in 150 μL MQ-water/MeOH 9/1 + 0.4% formic acid, heated at 50°C for 5 min and subjected to LC-MS analysis.
# If on one hand the synthesis of putative metabolites allows the establishment of structure activity relationships, on the other hand, it provides pure material to evaluate their presence in human urine samples and determine their pharmacological relevance. To determine the presence of any metabolites in the urine sample, we have designed an achiral separation protocol and coupled the liquid chromatography with triple quadrupole mass spectrometer (LCMS/MS). With the LCMS/MS system two substances with the same retention time, can still be differentiated by their fragmentation pattern. Since metabolites carrying a primary alcohol functionality can form glucuronide and sulfate conjugates, we performed an enzymatic workup of the urine sample in order to cleave them. Apart from the parental drug, we detected 4-OH-MMC and 4-MC (nor-meph) which we have both already identified in our previous publication ([Mayer et al., 2019]), and the two previously uncharacterized metabolites 4-COOH-MC and dihydro-4-MC (Figure 6). […]
# [2] = cited from earlier work; for relative abundance: minor metabolites in rats, ref Linhart et al., 2016
# [3] = ref Meyer et al., 2010; cited from earlier work
# DAT [4] = target: T1, DAT (Homo sapiens, UniProt Q01959); test: cell-based
# T1 construct: expressed in transfected cells
# T1 sequence (Q01959 whole entry): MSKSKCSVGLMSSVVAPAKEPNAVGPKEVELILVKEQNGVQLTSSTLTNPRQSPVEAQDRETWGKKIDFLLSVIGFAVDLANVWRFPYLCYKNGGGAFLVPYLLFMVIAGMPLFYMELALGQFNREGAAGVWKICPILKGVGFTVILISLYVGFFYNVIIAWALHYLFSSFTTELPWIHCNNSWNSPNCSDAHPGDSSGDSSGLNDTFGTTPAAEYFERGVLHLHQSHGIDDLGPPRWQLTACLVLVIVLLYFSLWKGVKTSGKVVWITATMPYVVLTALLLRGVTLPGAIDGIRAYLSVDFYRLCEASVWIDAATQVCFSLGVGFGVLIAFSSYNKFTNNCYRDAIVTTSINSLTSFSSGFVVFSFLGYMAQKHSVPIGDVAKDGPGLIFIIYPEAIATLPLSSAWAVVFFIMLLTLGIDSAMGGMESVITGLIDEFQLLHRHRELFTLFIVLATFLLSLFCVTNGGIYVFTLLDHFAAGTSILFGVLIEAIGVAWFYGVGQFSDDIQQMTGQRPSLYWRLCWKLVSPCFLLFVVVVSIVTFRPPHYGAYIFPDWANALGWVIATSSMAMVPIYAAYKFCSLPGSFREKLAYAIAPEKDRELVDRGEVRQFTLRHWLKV
# human NET [5] = target: T2, human NET (Homo sapiens, UniProt P23975); test: cell-based; conditions: for pIC50 NET: QSAR data matrix, from IC50 NET
# T2 construct: expressed in transfected cells
# T2 sequence (P23975 whole entry): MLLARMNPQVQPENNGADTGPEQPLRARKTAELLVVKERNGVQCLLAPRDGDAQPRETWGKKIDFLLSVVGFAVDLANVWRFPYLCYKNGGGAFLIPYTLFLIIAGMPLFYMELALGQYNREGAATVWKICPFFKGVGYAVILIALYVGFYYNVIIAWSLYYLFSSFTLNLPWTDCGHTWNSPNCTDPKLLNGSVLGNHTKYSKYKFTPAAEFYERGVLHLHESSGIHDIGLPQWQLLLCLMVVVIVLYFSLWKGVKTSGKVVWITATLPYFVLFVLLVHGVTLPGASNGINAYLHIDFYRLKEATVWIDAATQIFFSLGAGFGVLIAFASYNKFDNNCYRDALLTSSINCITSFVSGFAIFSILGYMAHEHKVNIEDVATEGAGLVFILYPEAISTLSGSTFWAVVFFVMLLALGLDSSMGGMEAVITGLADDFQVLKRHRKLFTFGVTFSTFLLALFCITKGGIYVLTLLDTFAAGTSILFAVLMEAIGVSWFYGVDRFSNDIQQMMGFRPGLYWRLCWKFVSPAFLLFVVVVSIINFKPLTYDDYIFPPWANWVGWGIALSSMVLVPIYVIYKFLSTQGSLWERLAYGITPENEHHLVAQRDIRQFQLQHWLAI
# SERT [6] = target: T3, SERT (Homo sapiens, UniProt P31645); test: Uptake-inhibition of [3H]5-HT in HEK293 cells stably expressing human SERT; format: cell-based
# T3 construct: expressed in transfected cells
# T3 sequence (P31645 whole entry): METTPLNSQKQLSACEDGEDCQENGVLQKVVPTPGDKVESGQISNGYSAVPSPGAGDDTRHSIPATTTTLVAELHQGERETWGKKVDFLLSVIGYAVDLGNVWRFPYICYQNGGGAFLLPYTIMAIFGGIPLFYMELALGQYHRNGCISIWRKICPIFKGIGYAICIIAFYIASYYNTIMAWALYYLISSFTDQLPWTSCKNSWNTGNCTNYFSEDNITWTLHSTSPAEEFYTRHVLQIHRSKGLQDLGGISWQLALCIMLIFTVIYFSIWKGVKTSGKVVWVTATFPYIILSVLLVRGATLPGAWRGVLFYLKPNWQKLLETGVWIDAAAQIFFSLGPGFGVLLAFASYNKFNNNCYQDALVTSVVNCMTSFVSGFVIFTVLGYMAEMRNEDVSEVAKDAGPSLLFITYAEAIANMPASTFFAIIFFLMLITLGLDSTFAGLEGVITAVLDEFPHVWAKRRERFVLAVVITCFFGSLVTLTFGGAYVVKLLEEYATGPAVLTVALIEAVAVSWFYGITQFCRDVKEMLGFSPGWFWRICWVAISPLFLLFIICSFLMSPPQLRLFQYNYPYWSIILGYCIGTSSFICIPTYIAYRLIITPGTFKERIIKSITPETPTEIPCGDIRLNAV
# DAT [7] = target: T1, DAT; conditions: cited from earlier work
# human NET [8] = target: T2, human NET; conditions: QSAR data matrix; unit inferred; compounds not tested in this paper, source not given, presumably ref Mayer et al., 2019; cited from earlier work
# SERT [9] = target: T3, SERT; conditions: cited from earlier work
# DAT [10] = target: T1, DAT; test: Transporter electrophysiology (whole cell patch clamp), HEK293 cells stably expressing DAT; format: cell-based; conditions: compound applied at 30 µM, -60 mV
# Experimental: (§1) Human embryonic kidney 293 cells (HEK293 cells) were cultivated in Dulbecco’s Modified Eagle Medium (DMEM), containing 10% heat-in- activated fetal calf serum (FCS), streptomycin (100 μg x 100 ml−1) and penicillin (100 U × 100 ml−1). Geneticin (50 μg x mL−1) was added to select HEK293 cells stably expressing the human isoforms of DAT, NET and SERT as described earlier ([Mayer et al., 2016a]). Cell lines were maintained in a sub-confluent state in humidified atmosphere (37°C, 5% CO2). For uptake inhibition experiments cells expressing the desired transporter were seeded the days before the experiment (40,000 cells per well) or two days before the experiments (20,000 cells per well) onto poly-D-lysine (PDL) coated 96-well plates 24 h prior to the experiment. In the case of transporter-electrophysiology cells were cultivated in 10 cm dishes and 24 h before the experiments they were detached, and seeded at low density onto PDL-coated 3 cm dishes.
# (§2) Transporter electrophysiology was conducted by the means of whole cell patch clamp in HEK293 cells stably expressing DAT or SERT. Substrate-induced currents were recorded under voltage clamp (−60 mV). Cells were continuously superfused with a physiological external solution that contains 140 mM NaCl, 2.5 mM CaCl2, 2 mM MgCl2, 20 mM glucose and 10 mM HEPES, pH = 7.4. The pipette solution contained 133 mM potassium gluconate, 6 mM NaCl, 1 mM CaCl2, 0.7 mM MgCl2, 10 mM HEPES, 10 mM EGTA, pH = 7.2. Currents elicited by mephedrone 30 μM, were measured at room temperature (20–24°C) using an […] amplifier and pClamp 11.2 software (MDS Analytical Technologies). All the solutions perfused onto the cell were applied using a DAD-12 superfusion system and a 8-tube perfusion manifold (ALA Scientific Instruments), which allowed for rapid solution exchange. Current traces were filtered at 1 kHz and digitized at 10 kHz using a Digidata 1,550 (MDS Analytical Technologies). […] For the analysis, passive holding currents were subtracted, and the traces were filtered using a 100-Hz digital Gaussian low-pass filter.
# SERT [11] = target: T3, SERT; test: Transporter electrophysiology (whole cell patch clamp), HEK293 cells stably expressing SERT; format: cell-based; conditions: compound applied at 30 µM, -60 mV
# Experimental: as §1, §2
# [12] = ref Olesti et al., 2019, cited from earlier work
# SERT [13] = test system: SERT; design: method as in Gregg et al., 2015; Mayer et al., 2016b; Mayer et al., 2019; conditions: ref Gregg et al., 2015, Mayer et al., 2016b, 2019; cited from earlier work
# [14] = QSAR data matrix, from IC50 DAT
# [15] = QSAR data matrix, from IC50 SERT
# [16] = QSAR data matrix, unit inferred, compounds not tested in this paper, source not given, presumably ref Mayer et al., 2019, read-out: IC50 DAT
# [17] = QSAR data matrix, unit inferred, compounds not tested in this paper, source not given, presumably ref Mayer et al., 2019, read-out: IC50 SERT
# [18] = QSAR data matrix, from IC50 DAT, read-out: pIC50 DAT (converted)
Structure (SMILES),detection in human urine sample [1],pIC50 DAT (DAT [4]; [14]),pIC50 NET (human NET [5]),pIC50 SERT (SERT [6]; [15]),IC50 (DAT [7]; [16]) [µM],IC50 (human NET [8]) [µM],IC50 (SERT [9]; [17]) [µM],further results
CC(N)C(=O)c1ccc(CO)cc1 (stereo not drawn) [4-OH-MC],not found,–,–,–,–,–,–,"relative abundance [2]: 0.1–0.2%; detection in rat urine ([2]; ref Meyer et al., 2010): could be detected in rat urine; detection in human urine [3]: not in human urine"
"CN[C@@H](C)[C@@H](O)c1ccc(C)cc1 [1S2S-MMC, reference compound]",–,4.89,4.33,3.61,12.9,47.1,248,–
"CNC(C)C(=O)c1ccc(C)cc1 (stereo not drawn) [Mephedrone, reference compound]",–,–,–,–,–,–,–,"Selectivity ratio DAT/SERT (DAT [4]): 2.90; Selectivity ratio NET/DAT (human NET [5]): 1.09; DAT-mediated current (DAT [10]): elicited both DAT- and SERT mediated currents; SERT-mediated current (SERT [11]): elicited both DAT- and SERT mediated currents; Detected in urine samples [1]: +; IC50 (DAT [7]; read-out: IC50 (µM) DAT, mean (95% confidence interval), ref Niello et al. (2019)): 3.01 µM; IC50 (SERT [9]; read-out: IC50 (µM) SERT, mean (95% confidence interval), ref Niello et al. (2019)): 8.74 µM; plasma concentrations ([12]; conversion of ng h/ml range): 0.090 to 1.25 µM·h"
"CN[C@H](C)[C@@H](O)c1ccc(C)cc1 [1S2R-MMC, reference compound]",–,4.90,4.64,4.18,12.7,22.7,65.6,–
"CN[C@@H](C)[C@H](O)c1ccc(C)cc1 [1R2S-MMC, reference compound]",–,4.68,4.41,4.49,21.1,39,32.2,–
"CN[C@@H](C)C(=O)c1ccc(C)cc1 [S-mephedrone, reference compound]",–,–,–,–,–,–,–,"IC50 (DAT [4]; [18]): 0.776 µM; IC50 (human NET [5]): 2.75 µM; IC50 (SERT [6]; pIC50 SERT, QSAR data matrix, from IC50 SERT): 10.7 µM; IC50 (SERT [9]; read-out: IC50 SERT, QSAR data matrix, unit inferred, compounds not tested in this paper, source not given, presumably ref Mayer et al., 2019): 10.7 µM; potency as releaser of SERT, times higher than R-mephedrone (SERT [13]): 40 times"
"CN[C@H](C)[C@H](O)c1ccc(C)cc1 [1R2R-MMC, reference compound]",–,4.85,4.41,3.52,14.1,39.1,302,–
"CNC(C)C(O)c1ccc(C)cc1 (stereo not drawn) [dihydro-4-MMC, dihydro-mephedrone, reference compound]",did not find,–,–,–,–,–,–,plasma level as % of the plasma mephedrone [12]: 10%
"Cc1ccc(C(=O)C(C)N)cc1 (stereo not drawn) [4-MC, nor-mephedrone, reference compound]",detected,–,–,–,–,–,–,plasma level as % of the plasma mephedrone [12]: 25%
"Cc1ccc([C@@H](O)[C@H](C)N)cc1 [Dihydro-(R,S)-4-MC]",–,–,–,–,–,–,–,"Selectivity ratio DAT/SERT (DAT [4]): 4.94; IC50 (DAT [4]; [18]): 13.5 µM; IC50 (DAT [4]; mean (95% confidence interval), non-linear regression, read-out: IC50 (µM) DAT): 13.5 µM; Selectivity ratio NET/DAT (human NET [5]): 0.42; IC50 (human NET [5]; mean (95% confidence interval), non-linear regression, read-out: IC50 (µM) NET): 32.4 µM; IC50 (SERT [6]; IC50 (µM) SERT, mean (95% confidence interval), non-linear regression): 66.9 µM; IC50 (SERT [6]; IC50 SERT, QSAR data matrix, unit inferred): 66.9 µM; DAT-mediated current (DAT [10]): elicited only SERT-mediated currents; SERT-mediated current (SERT [11]): elicited only SERT-mediated currents; Detected in urine samples [1]: +"
CC(N)C(O)c1ccc(CO)cc1 (stereo not drawn) [dihydro-4-OH-MC],not found,–,–,–,–,–,–,relative abundance [2]: 0.1–0.2%
"Cc1ccc(C(=O)[C@H](C)N)cc1 [2S-MC, reference compound]",–,5.06,5.42,4.96,8.72,3.84,10.9,–
"Cc1ccc(C(=O)[C@@H](C)N)cc1 [2R-MC, reference compound]",–,5.03,5.34,3.70,9.44,4.54,200,–
